Like-named read-outs stand apart in the source and are kept apart here.
Legend:
FGFR-4 = FGFR-4 (Homo sapiens, UniProt P22455); assay: Enzymatic kinase assay; assay type: biochemical
Method: (§1) Two methods were used to analyze phosphorylated peptides and proteins produced by the listed tyrosine and serine/threonine-specific protein kinases: either using a filter-binding assay (FB), or using a flashplate assay (FP). The activities of protein kinases were assayed in the presence or absence of inhibitors, by measuring the incorporation of ^33P from [γ^33P]ATP into appropriate substrates.
(§2) 96-well polypropylene microplates were used to assay the activity in the FB mode. To determine the inhibitory activity of compounds 10 μL of compound dilutions were pipetted into 96-well plates followed by the addition of 10 μL of assay mix and 10 μL of individual enzymes. With the addition of the enzymes the reactions were initiated and continued at RT. […] The final concentration of DMSO in the enzyme assays was 1%.
(§3) Flashplates are available as 96-well standard (STFPs) or as streptavidin-(SAFPs) or nickel coated FPs (NiFPs) from Perkin Elmer. STFPs are 96-well polystyrene microplates in which the interior of each well is permanently coated with a thin layer of polystyrene-based scintillant. Streptavidin flashplates (SAFP) are 96 or 384-well STFPs coated with streptavidin. SAFPs are suitable for a wide variety of assay applications which utilize biotinylated capture molecules. NiFP or nickel chelate flashplates are 96- or 384-well STFPs coated with nickel chelate. NiFPs are designed for in-plate, radiometric assays which utilize 4- or 6-histidine tagged proteins and peptides.
(§4) All kinase assays were performed in STFPs for 60 mins at RT and stopped with 50 μL of 0.5% H3PO4 except PKA which were carried out in polypropylene 96- and 384-well plates, respectively. […] All wells were then washed three times with 200 μL of 0.5% H3PO4 and the plates were dried at room temperature. The plates were sealed and counted in a microplate scintillation counter (TopCount NXT, TopCount NXT HTS). The final concentration of DMSO in the enzyme assays was 1%.

Aurora A = molecular target: T1, Aurora A (Homo sapiens, UniProt O14965); assay: Enzymatic kinase assay; assay type: biochemical
T1 sequence (O14965 1-403): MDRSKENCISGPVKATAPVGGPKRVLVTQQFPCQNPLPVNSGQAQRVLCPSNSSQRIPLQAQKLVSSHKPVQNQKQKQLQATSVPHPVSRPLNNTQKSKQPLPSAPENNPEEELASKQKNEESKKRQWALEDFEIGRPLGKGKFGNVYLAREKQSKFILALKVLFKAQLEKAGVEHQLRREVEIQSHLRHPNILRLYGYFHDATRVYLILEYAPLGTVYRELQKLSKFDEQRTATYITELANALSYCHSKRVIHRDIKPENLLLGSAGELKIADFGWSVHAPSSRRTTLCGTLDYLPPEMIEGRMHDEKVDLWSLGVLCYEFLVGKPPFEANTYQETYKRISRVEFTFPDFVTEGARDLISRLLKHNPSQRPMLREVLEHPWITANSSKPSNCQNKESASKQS
Method: as §1, §2, §3, §4

EphA4 = EphA4 (Homo sapiens, UniProt P54764); assay: Enzymatic kinase assay; assay type: biochemical
Method: as §1, §2, §3, §4

CDK2A = CDK2A (Homo sapiens, UniProt P24941); assay: Enzymatic kinase assay; assay type: biochemical
Method: as §1, §2, §3, §4

PDGFRa = PDGFRa (Homo sapiens, UniProt P16234); assay: Enzymatic kinase assay; assay type: biochemical
Method: as §1, §2, §3, §4

LCK = LCK (Homo sapiens, UniProt P06239); assay: Enzymatic kinase assay; assay type: biochemical
Method: as §1, §2, §3, §4

HER2 = HER2 (Homo sapiens, UniProt P04626); assay: Enzymatic kinase assay; assay type: biochemical
Method: as §1, §2, §3, §4

COT1 = COT1 (Homo sapiens, UniProt P41279); assay: Enzymatic kinase assay; assay type: biochemical
Chain of COT1 (P41279 whole entry): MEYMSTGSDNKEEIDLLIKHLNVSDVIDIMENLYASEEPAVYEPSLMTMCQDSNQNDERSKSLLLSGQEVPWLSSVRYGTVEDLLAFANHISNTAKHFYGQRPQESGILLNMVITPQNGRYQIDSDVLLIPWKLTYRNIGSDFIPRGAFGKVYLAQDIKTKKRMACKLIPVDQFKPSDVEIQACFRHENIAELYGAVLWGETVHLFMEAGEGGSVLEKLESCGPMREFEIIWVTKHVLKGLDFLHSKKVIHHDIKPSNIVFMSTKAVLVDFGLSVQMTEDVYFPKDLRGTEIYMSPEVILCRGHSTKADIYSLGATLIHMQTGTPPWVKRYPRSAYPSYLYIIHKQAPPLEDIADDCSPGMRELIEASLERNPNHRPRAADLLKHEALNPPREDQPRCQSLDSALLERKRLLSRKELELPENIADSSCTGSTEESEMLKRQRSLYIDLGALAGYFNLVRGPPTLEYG
Method: as §1, §2, §3, §4

P38a = P38a (Homo sapiens, UniProt Q16539); assay: Enzymatic kinase assay; assay type: biochemical
Chain of P38a (Q16539 whole entry): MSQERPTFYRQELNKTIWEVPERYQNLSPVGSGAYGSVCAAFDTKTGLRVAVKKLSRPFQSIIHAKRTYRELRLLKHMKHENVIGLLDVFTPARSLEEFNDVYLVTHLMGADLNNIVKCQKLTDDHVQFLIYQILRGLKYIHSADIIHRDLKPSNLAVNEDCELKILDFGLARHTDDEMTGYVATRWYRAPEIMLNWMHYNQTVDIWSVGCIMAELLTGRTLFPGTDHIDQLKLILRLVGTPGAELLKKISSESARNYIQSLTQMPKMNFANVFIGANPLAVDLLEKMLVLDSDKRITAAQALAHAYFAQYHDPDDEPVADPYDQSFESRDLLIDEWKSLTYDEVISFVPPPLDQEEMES
Method: as §1, §2, §3, §4

TYK2 = TYK2 (Homo sapiens, UniProt P29597); assay: Enzymatic kinase assay; assay type: biochemical
Chain of TYK2 (P29597 whole entry, species assumed): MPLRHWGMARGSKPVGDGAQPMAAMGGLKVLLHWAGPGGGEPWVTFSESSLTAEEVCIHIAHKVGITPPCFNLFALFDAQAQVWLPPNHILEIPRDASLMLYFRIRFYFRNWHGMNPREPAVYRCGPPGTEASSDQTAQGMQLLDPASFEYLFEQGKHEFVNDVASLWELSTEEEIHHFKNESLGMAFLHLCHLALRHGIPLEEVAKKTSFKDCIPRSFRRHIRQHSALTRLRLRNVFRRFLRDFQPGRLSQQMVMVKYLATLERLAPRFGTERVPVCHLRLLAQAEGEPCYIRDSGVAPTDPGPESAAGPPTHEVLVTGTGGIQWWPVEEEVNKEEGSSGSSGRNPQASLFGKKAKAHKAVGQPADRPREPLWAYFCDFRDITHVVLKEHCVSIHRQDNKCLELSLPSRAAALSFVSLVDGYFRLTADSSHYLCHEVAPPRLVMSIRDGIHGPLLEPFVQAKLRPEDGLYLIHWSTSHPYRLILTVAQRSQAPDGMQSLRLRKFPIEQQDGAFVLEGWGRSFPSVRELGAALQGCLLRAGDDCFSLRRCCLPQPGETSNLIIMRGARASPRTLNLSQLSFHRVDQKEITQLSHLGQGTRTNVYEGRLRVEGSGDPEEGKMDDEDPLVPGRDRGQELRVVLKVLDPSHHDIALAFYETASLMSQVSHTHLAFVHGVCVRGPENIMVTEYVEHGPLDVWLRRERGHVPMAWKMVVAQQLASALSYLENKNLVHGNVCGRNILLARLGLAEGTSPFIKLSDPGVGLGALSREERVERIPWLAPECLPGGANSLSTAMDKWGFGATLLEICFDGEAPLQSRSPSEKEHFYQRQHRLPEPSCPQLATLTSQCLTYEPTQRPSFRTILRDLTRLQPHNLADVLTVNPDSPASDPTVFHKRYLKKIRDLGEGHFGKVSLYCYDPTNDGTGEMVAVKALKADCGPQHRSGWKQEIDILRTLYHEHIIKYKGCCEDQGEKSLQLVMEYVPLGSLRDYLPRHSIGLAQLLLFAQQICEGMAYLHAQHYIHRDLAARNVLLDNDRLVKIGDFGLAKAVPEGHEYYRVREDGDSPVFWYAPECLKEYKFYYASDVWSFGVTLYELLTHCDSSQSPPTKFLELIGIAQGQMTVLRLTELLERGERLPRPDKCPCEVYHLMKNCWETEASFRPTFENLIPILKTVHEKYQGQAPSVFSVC
Method: as §1, §2, §3, §4

cKIT = cKIT (Homo sapiens, UniProt P10721); assay: Enzymatic kinase assay; assay type: biochemical
Method: as §1, §2, §3, §4

ERK2 = ERK2 (Homo sapiens, UniProt P28482); assay: Enzymatic kinase assay; assay type: biochemical
Chain of ERK2 (P28482 whole entry, species assumed): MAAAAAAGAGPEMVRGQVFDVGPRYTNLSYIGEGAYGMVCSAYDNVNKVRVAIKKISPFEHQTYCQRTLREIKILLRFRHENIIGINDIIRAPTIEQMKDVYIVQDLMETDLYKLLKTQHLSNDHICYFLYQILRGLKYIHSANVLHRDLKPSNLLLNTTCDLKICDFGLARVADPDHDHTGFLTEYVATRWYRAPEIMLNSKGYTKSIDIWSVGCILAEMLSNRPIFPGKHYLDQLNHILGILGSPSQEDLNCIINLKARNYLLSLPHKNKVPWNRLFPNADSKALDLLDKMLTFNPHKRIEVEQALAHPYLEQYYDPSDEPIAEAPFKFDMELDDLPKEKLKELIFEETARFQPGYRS
Method: as §1, §2, §3, §4

MK2 = MK2 (Homo sapiens, UniProt P49137); assay: Enzymatic kinase assay; assay type: biochemical
Chain of MK2 (P49137 whole entry, species assumed): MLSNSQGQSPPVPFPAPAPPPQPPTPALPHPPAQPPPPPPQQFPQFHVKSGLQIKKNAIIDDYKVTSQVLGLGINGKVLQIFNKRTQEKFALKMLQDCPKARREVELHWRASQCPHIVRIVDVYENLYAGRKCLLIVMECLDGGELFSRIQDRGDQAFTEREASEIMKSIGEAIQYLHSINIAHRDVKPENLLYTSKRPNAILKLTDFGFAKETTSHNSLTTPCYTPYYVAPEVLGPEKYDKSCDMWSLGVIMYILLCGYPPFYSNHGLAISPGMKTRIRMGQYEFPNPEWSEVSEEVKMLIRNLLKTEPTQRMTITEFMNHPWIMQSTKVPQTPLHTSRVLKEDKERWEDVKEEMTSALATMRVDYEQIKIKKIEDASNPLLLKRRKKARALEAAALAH
Method: as §1, §2, §3, §4

RET = RET (Homo sapiens, UniProt P07949); assay: Enzymatic kinase assay; assay type: biochemical
Method: as §1, §2, §3, §4

JAK2 = JAK2 (Homo sapiens, UniProt O60674); assay: Enzymatic kinase assay; assay type: biochemical
Method: as §1, §2, §3, §4

cABLT315 = cABLT315 (Homo sapiens, UniProt P00519, T315I); assay: Enzymatic kinase assay; assay type: biochemical
Method: as §1, §2, §3, §4

cMET = cMET (Homo sapiens, UniProt P08581); assay: Enzymatic kinase assay; assay type: biochemical
Method: as §1, §2, §3, §4

GSK3beta = GSK3beta (Homo sapiens, UniProt P49841); assay: Enzymatic kinase assay; assay type: biochemical
Method: as §1, §2, §3, §4

KDR = KDR (Homo sapiens, UniProt P35968); assay: Enzymatic kinase assay; assay type: biochemical
Method: as §1, §2, §3, §4

IGF1R [1] = molecular target: T2, IGF1R (Homo sapiens, UniProt P08069); assay: Cellular IGF-1R assay: inhibition of IGF1R phosphorylation in Hek293 cells, capture ELISA (MSD); assay type: cell-based; set-up: expressed in transfected cells; host or cells: Hek293 (Hek293-IGF1R); conditions: IGF-triggered receptor phosphorylation
T2 sequence (P08069 31-1367): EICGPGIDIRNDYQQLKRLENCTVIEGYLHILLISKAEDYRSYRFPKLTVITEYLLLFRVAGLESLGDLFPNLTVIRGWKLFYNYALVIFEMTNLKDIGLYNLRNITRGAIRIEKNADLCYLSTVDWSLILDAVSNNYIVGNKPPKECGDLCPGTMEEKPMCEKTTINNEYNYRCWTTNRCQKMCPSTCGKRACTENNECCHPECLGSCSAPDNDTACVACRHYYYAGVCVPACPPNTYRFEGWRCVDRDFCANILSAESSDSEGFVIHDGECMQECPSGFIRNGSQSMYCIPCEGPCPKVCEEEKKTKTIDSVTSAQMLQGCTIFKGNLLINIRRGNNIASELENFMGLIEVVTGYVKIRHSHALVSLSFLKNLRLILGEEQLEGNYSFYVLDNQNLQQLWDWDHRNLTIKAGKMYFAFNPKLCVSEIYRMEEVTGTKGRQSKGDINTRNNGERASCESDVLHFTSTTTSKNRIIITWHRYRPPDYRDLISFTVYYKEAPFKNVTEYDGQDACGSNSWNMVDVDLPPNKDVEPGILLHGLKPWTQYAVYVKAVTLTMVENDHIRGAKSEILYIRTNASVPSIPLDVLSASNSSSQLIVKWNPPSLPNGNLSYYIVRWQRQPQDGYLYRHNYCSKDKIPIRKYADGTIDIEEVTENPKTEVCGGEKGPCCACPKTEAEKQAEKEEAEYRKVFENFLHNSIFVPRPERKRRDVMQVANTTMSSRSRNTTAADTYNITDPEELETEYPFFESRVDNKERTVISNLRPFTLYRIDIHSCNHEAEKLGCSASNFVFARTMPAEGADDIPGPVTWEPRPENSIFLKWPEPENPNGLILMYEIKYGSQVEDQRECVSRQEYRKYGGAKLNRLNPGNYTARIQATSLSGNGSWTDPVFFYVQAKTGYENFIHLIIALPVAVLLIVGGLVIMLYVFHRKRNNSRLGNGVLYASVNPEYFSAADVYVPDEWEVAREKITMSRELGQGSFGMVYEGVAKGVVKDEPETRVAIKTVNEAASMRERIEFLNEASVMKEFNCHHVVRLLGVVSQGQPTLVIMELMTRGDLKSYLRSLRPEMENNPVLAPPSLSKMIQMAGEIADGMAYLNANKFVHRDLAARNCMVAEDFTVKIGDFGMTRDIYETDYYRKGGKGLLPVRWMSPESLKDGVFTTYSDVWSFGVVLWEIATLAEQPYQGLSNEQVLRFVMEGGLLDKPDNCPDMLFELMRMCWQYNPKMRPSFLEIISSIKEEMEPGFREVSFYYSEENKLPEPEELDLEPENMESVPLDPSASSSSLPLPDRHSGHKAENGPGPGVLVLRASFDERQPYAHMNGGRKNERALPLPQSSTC
Method: IVa. Cellular IGF-1R and InsR Assays
Compound-mediated inhibition of IGF1R and INSR phosphorylation in Hek293 cells transduced with the corresponding receptors is assessed in a capture ELISA format using the MSD (Meso Scale Discovery) platform. Briefly, 30′000 cells washed and diluted in starvation medium (DMEM high glucose supplemented with 0.1% BSA) are seeded in 90 μL per well into 96-well plates pre-coated with poly-D-lysine (0.1 mg/mL in PBS/O). After 24 h incubation at 37° C. and 5% CO2, dose-response effects are determined with 3-fold serial compound dilutions, starting at 10 μM. The final vehicle concentration is 0.1% DMSO in all wells. Following pre-incubation with compounds for 1 h, receptor phosphorylation is triggered by a 10 min exposure to 1.0 ng/μL IGF for Hek293-IGF1R cells, and 5.0 ng/μL insulin for Hek293-InsR cells. Cell lysis is achieved by addition of 80 μL MSD lysis buffer per aspirated well, incubation on ice for 20 min, and a freeze-thaw cycle. Target phosphorylation is then assessed by transferring volumes corresponding to approx. 6 μg Hek293-IGF1R or 0.6 μg Hek293-InsR lysates to MSD assay plates pre-coated with total-IGF1R or total-InsR Abs, respectively. […] Immune complexes are detected by a SULFO-Tag™-coupled anti-rabbit IgG antibody in the presence of 150 μL MSD read-buffer. Light emission at 620 nm triggered by application of electric current is recorded on a MSD Sectorlmager 6000. Acquired raw data (mean Ru-ECL units) are processed in an Excel analysis template. The plate blank (MSD lysis buffer) is subtracted from all data points. The effect of a particular test compound concentration on receptor phosphorylation is expressed relative to the window defined by ligand-stimulated vs unstimulated control cells (set as 100%). IC50 values [nM] are determined using 4-parametric curve-fitting (XLfit software, V4.3.2).

hERG channels = hERG channels (Homo sapiens, UniProt Q12809); assay: biochemical
InsR = InsR (Homo sapiens, UniProt P06213); assay: Enzymatic kinase assay (filter-binding/flashplate); assay type: biochemical
Method: as §1, §2, §3, §4

IGF1R [2] = molecular target: T2, IGF1R; assay: Enzymatic kinase assay (filter-binding/flashplate); assay type: biochemical
Method: as §1, §2, §3, §4

c-src = c-src (Homo sapiens, UniProt P12931); assay: Kinase assay of known compound and phenol metabolite X; assay type: biochemical; conditions: metabolite comparison table
EphB4 = EphB4 (Homo sapiens, UniProt P54760); assay: as above; assay type: biochemical; conditions: metabolite comparison table
C-Abl = C-Abl (Homo sapiens, UniProt P00519); assay: as above; assay type: biochemical; conditions: metabolite comparison table
[3] = enzymatic, read-out: RET IC50 values (converted)
[4] = enzymatic, read-out: InsR IC50 values

Chain of FGFR-4 (P22455 22-802, species assumed): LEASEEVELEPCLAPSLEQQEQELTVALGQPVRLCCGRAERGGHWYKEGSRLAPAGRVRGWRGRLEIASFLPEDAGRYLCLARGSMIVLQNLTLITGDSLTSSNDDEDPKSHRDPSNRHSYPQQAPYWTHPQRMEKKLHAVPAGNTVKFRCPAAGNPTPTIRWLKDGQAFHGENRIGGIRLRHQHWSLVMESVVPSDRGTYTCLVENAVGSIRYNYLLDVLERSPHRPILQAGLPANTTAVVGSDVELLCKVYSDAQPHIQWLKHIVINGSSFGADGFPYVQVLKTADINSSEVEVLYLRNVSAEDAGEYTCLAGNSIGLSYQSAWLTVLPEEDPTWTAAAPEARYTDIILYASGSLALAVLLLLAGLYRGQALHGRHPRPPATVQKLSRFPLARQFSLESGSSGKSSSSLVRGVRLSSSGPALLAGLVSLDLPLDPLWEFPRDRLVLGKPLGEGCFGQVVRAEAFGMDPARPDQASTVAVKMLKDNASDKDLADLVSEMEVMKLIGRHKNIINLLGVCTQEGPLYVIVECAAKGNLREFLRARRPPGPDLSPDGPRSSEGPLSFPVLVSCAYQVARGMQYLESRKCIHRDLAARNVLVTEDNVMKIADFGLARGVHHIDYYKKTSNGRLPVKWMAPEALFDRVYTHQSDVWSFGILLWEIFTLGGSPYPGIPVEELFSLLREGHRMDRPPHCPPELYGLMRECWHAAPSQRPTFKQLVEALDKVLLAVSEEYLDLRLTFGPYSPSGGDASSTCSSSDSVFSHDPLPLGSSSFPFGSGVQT

Compound | IC50 (FGFR-4) [µM] | IC50 (Aurora A) [µM] | IC50 (EphA4) [µM] | IC50 (CDK2A) [µM] | IC50 (PDGFRa) [µM] | IC50 (LCK) [µM] | IC50 (HER2) [µM] | IC50 (COT1) [µM] | IC50 (P38a) [µM] | IC50 (TYK2) [µM] | IC50 (cKIT) [µM] | IC50 (ERK2) [µM] | IC50 (MK2) [µM] | IC50 (RET; [3]) [µM] | IC50 (JAK2) [µM] | IC50 (cABLT315) [µM] | IC50 (cMET) [µM] | IC50 (GSK3beta) [µM] | IC50 (KDR) [µM] | IC50 (hERG channels) [µM] | other results
Nc1ncnc2c1c(-c1cccc(OC[C@@H]3CCCO3)c1F)cn2C1CC2(CNC(=O)O2)C1 (stereo partly drawn) [Example 4, 2-(4-Amino-5-{2-fluoro-3-[(S)-1-(tetrahydro-furan-2-yl)methoxy]-phenyl}-pyrrolo[2,3-d]pyrimidin-7-yl)-5-oxa-7-aza-spiro[3.4]octan-6-one] | > 10 | > 10 | > 10 | > 10 | > 10 | > 10 | > 10 | > 10 | > 10 | > 10 | > 10 | > 10 | > 10 | > 10 | > 10 | > 10 | > 10 | > 10 | 4.5 | 8.7 | IC50 (IGF1R [1]): 0.017 µM; IC50 (InsR; [4]): 0.25 µM; IC50 (IGF1R [2]): 0.013 µM
Nc1ncnc2c1c(-c1cccc(OC[C@@H]3CCCO3)c1F)cn2[C@H]1C[C@@H](CN2CC[S+]([O-])CC2)C1 [Example 6, 5-{2-Fluoro-3-[(S)-1-(tetrahydro-furan-2-yl)methoxy]-phenyl}-7-[cis-3-(1-oxo-thiomorpholin-4-ylmethyl)-cyclobutyl]-7H-pyrrolo[2,3-d]pyrimidin-4-ylamine] | > 10 | > 10 | > 10 | > 10 | 8.3 | 8.6 | > 10 | > 10 | > 10 | > 10 | 0.77 | > 10 | > 10 | 3.4 | > 10 | > 10 | > 10 | > 10 | 5.7 | > 30 | IC50 (IGF1R [1]): 0.01 µM; IC50 (InsR; [4]): 0.039 µM; IC50 (IGF1R [2]): 0.0038 µM
[2H]C1([2H])C([2H])([2H])C2(COc3cccc(-c4cn([C@H]5C[C@@H](N6CC[S+]([O-])CC6)C5)c5ncnc(N)c45)c3F)OC1([2H])C([2H])([2H])C2([2H])[2H] [Example 18, d9-5-[2-Fluoro-3-(7-oxa-bicyclo[2.2.1]hept-1-ylmethoxy)-phenyl]-7-[cis-3-(1-oxo-thiomorpholin-4-yl)-cyclobutyl]-7H-pyrrolo[2,3-d]pyrimidin-4-ylamine] | > 10 | > 10 | > 10 | > 10 | > 10 | > 10 | > 10 | > 10 | > 10 | > 10 | > 10 | > 10 | > 10 | > 10 | > 10 | > 10 | > 10 | > 10 | > 10 | > 30 | IC50 (IGF1R [1]): 0.004 µM; IC50 (InsR; [4]): 0.043 µM; IC50 (IGF1R [2]): 0.015 µM
Nc1ncnc2c1c(-c1cc(OC[C@@H]3CCCO3)ccc1F)cn2[C@H]1C[C@@H](N2CCN(C(=O)CO)CC2)C1 [Example 40, 1-{4-[cis-3-(4-Amino-5-{2-fluoro-5-[(S)-1-(tetrahydro-furan-2-yl)methoxy]-phenyl}-pyrrolo[2,3-d]pyrimidin-7-yl)-cyclobutyl]-piperazin-1-yl}-2-hydroxy-ethanone] | > 10 | > 10 | > 10 | > 10 | > 10 | > 10 | > 10 | > 10 | > 10 | > 10 | > 10 | > 10 | > 10 | > 10 | > 10 | > 10 | > 10 | > 10 | 9.2 | > 30 | IC50 (InsR; [4]): 0.27 µM; IC50 (IGF1R [2]): 0.0087 µM
Nc1ncnc2c1c(-c1cccc(OCc3ccccc3)c1)cn2[C@H]1C[C@@H](CN2CCC2)C1 [WO02/092599, ex. 102] | – | – | – | – | – | – | – | – | – | – | – | – | – | – | – | – | – | – | – | – | IC50 (c-src): > 10 µM; IC50 (RET; metabolite comparison table, read-out: RET IC50): 4.4 µM; IC50 (EphB4): > 10 µM; IC50 (C-Abl): > 10 µM; IC50 (InsR; metabolite comparison table, read-out: InsR IC50): 0.23 µM
